This experiment has as its system HL-60. Kind of experiment: Cell killing in HL-60 by CCK-8. The class given is cell-based. The note with it: HL-60, 48 h. Here is the method: • a) Cell line: HL-60 • b) Procedure • (1) Normally cultured HL-60 cells in the logarithmic growth phase were centrifuged at 800 rpm for 5 min to discard the supernatant. Approximately 3 mL of normal medium was added to resuspend the cell pellet by gently pipetting up and down. The cells were then counted using a cell counter and inoculated onto a 96-well plate. • (2) Sample solutions with different concentration gradients were prepared. Approximately 10 µL of each solution was added to the 96-well plate, with 3 to 6 replicate wells for each concentration, and incubated in a 5% CO2 incubator at 37°C for 48 h. • (3) CCK-8 was equilibrated to room temperature before use, and 10 µL of CCK-8 solution was added to each well. • (4) The plate was incubated in the incubator for 0.5-4 h in the dark, with the incubation time depending on experimental conditions such as cell type and density. • (5) The absorbance was measured at 450 nm using a microplate reader. • c) Data analysis Cell viability = [(As−Ab)/(Ac−Ab)] × 100% [formula] Inhibition% = [(Ac−As)/(Ac−Ab)] × 100% [formula] • As: absorbance of sample well (containing cells + medium + CCK-8 solution + drug solution); • Ac: absorbance of control well (containing cells + medium + CCK-8 solution); • Ab: absorbance of blank well (containing medium + CCK-8 solution); • The results were processed and analyzed using Excel and Graphpad Prism to obtain the IC50. Table 4: Test Results of Cell Killing in HL-60 for 48 h

Data on one compound can be found in patent EP4772530A1, “PEPTIDE TARGETING SOMATOSTATIN RECEPTOR, DRUG CONJUGATE AND USE THEREOF” (Mainline Biosciences (Shanghai) Co., Ltd., priority 2023, dated 2025).

Broadly, the IC50 is the concentration needed to halve the response being measured.

On to `CC[C@H](C)[C@@H]([C@@H](CC(=O)N1CCC[C@H]1[C@H](OC)[C@@H](C)C(=O)N[C@H](C)[C@@H](O)c1ccccc1)OC)N(C)C(=O)[C@@H](NC(=O)[C@H](C(C)C)N(C)C(=O)OCc1ccc(NC(=O)[C@H](CCCNC(N)=O)NC(=O)[C@@H](NC(=O)CCCCCN2C(=O)CC(SC[C@H](NC(C)=O)C(=O)NCCOCCOCC(=O)N[C@@H](CCCNC(=N)N)C(=O)N[C@@H](CCCNC(=N)N)C(=O)N[C@@H](CC(C)C)C(=O)N[C@@H](Cc3ccccc3)C(=O)N[C@H]3CSSC[C@@H](C(=O)N[C@H](C(=O)N[C@@H](Cc4c[nH]c5ccccc45)C(=O)N[C@@H](CCCNC(=N)N)C(=O)N[C@@H](CC(=O)O)C(N)=O)[C@@H](C)O)NC(=O)[C@H]([C@@H](C)O)NC(=O)[C@H](CCCCN)NC(=O)[C@@H](Cc4c[nH]c5ccccc45)NC(=O)[C@H](Cc4ccc(O)cc4)NC3=O)C2=O)C(C)C)cc1)C(C)C` (single isomer, unassigned) [Example 10, Ac-Cys(MC-Val-Cit-PABC-MMAE)-AEEA-Arg-Arg-Leu-Phe-[Cys-Tyr-D-Trp-Lys-Thr-Cys]-Thr-Trp-Arg-Asp-NH2], for which the “Bottom (Inhibition at Lowest Point)” value is -2.25, the IC50 was found to be 187 nM and the “Top (Inhibition at Highest Point)” value was 90.08.
